Data published in ChEMBL document CHEMBL1201862, “PubChem BioAssay data set” (2004).
Active and inactive are the calls of the source.

Assays:
[1] = MIN6 cell viability loss – mouse insulinoma, cytotoxicity control, dose response (AID 2122); assay type: functional;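 note: confirmatory high-throughput counterscreen run to flag cytotoxic compounds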
Protein Wnt-3a = Protein Wnt-3a (Mus musculus, UniProt P27467); assay: antagonism of Wnt3a pathway luciferase reporter – Wnt-LIGHT cells, luminescence, selectivity assay for Gli-SUFU antagonist project, dose response (AID 651570); assay type: functional; conditions: read-out: IC50_Mean;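 note: Wnt-LIGHT reporter cells stimulated with conditioned medium from Wnt3a-producing cells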
[2] = non-specific 3'UTR reporter inhibition in Clone20-Shn3RL – cell-based, Renilla luciferase, cherry-picked, counter-screen for Shn3 inhibitor project, dose response (AID 624133); assay type: functional
[3] = reduction of Shn3 3'UTR-driven luciferase in osteoblasts – cell-based, Clone20 osteoblasts, firefly luciferase, cherry-picked, dose response (AID 624132); assay type: functional;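 note: firefly luciferase luminescence from reporter carrying the Shn3 3'UTR in osteoblasts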
[4] = decrease of insulin promoter-GFP reporter – imaging, high-content screening, mouse beta cells (AID 1628); assay type: functional; conditions: MIN6
[5] = viability of uninfected HEp-2 cells – cell-based, HTS, cytotoxicity control for RSV inhibitor project, dose response (AID 2410); assay type: functional; conditions: human respiratory syncytial virus
Leucine aminopeptidase = molecular target: T1, Leucine aminopeptidase (Plasmodium falciparum 3D7, UniProt Q8IL11); assay: P. falciparum M17LAP inhibitors, primary screen, biochemical, fluorogenic H-Leu-NHMec substrate, 1536-well (AID 1619); assay type: functional
T1 sequence (Q8IL11 whole entry): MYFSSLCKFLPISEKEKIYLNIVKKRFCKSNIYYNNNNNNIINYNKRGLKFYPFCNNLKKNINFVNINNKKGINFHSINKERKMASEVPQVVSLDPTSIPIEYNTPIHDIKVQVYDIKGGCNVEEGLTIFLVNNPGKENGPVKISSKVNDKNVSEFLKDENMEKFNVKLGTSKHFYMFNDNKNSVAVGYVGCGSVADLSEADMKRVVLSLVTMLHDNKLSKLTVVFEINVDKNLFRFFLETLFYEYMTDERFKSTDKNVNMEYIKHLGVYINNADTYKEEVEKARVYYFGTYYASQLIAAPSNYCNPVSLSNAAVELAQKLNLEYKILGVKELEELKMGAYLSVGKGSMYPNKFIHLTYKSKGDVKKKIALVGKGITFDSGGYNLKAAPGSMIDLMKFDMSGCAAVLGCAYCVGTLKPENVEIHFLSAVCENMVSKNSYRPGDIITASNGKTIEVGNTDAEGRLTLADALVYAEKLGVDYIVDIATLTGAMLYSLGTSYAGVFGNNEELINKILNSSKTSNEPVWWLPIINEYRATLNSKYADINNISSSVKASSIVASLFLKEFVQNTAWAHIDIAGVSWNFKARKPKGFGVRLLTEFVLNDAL

Protein skinhead-1 = molecular target: T2, Protein skinhead-1 (Caenorhabditis elegans, UniProt P34707); assay type: functional
T2 sequence (P34707 whole entry): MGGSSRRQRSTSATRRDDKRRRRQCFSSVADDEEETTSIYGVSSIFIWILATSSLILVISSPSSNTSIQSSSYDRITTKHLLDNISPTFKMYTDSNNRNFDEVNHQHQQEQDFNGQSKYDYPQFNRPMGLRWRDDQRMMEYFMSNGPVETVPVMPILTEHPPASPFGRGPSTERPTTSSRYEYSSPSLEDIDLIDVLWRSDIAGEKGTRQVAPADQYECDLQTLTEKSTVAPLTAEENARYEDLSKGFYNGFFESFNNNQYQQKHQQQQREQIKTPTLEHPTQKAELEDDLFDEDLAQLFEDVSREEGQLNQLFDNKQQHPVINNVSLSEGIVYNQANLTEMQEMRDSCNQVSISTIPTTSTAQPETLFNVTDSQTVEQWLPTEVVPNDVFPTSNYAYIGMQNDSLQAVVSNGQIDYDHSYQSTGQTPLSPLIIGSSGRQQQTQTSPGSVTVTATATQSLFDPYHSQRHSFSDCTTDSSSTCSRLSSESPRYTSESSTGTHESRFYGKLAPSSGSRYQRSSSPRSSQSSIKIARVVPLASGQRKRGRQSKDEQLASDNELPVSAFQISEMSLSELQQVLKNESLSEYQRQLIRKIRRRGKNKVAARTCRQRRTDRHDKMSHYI

[6] = molecular target: Melanin-concentrating hormone receptor 1 (Homo sapiens, UniProt Q99705); assay: Late-stage fluorescence-based counterscreen for antagonists of the G-protein coupled receptor 7 (GPR7): cell-based dose response assay to identify antagonists of the melanin-concentrating hormone receptor 1 (MCHR1) Set 5.; assay type: functional
[7] = molecular target: T3, Rac GTPase-activating protein 1 (Homo sapiens, UniProt Q9H0H5); assay: blockers of MgcRacGAP-driven Rac1 GTP hydrolysis – biochemical, ADP Hunter fluorescence, primary and confirmatory, confirmation (AID 624330); assay type: functional
T3 sequence (Q9H0H5 whole entry): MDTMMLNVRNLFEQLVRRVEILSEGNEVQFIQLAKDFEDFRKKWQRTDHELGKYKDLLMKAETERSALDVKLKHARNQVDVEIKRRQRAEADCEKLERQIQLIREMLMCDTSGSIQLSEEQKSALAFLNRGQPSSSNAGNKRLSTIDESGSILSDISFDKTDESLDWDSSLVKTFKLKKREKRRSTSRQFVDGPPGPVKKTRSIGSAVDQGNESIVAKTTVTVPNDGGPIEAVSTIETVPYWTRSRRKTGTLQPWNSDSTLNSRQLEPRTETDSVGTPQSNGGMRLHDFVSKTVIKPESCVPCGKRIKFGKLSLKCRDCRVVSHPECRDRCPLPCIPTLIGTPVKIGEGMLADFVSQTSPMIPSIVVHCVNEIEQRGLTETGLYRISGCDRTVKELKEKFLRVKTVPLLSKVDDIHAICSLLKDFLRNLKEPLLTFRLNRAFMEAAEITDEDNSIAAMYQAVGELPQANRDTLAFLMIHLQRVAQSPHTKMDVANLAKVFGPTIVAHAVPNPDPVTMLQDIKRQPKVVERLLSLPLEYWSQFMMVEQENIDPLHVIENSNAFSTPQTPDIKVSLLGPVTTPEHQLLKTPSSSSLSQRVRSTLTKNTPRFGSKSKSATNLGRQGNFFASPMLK

[8] = molecular target: Heat shock protein HSP 90-alpha (Homo sapiens, UniProt P07900); assay type: functional, organism-based
Vero [9] = assay: cells; assay type: functional; conditions: Chlorocebus sabaeus
Vero [10] = assay: cells; assay type: functional, cell-based; conditions: Chlorocebus sabaeus
CAAX prenyl protease 2 [11] = molecular target: T4, CAAX prenyl protease 2 (Homo sapiens, UniProt Q9Y256); assay: inhibition of Ras-converting CAAX protease Rce1 – biochemical, yeast membranes, quenched-peptide fluorescence, cherry-pick, dose response (AID 588849)
T4 sequence (Q9Y256 whole entry): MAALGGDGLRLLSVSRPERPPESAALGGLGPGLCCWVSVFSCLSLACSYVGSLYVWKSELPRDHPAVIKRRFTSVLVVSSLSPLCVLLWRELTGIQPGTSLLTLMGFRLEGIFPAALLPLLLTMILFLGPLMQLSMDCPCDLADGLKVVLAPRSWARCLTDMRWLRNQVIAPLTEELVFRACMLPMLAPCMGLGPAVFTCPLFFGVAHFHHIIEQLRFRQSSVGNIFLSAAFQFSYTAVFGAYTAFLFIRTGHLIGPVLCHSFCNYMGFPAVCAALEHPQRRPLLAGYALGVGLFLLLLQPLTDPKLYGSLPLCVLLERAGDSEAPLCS

CAAX prenyl protease 2 [12] = molecular target: T5, CAAX prenyl protease 2 (Saccharomyces cerevisiae S288c, UniProt Q03530); assay type: biochemical
T5 sequence (Q03530 whole entry): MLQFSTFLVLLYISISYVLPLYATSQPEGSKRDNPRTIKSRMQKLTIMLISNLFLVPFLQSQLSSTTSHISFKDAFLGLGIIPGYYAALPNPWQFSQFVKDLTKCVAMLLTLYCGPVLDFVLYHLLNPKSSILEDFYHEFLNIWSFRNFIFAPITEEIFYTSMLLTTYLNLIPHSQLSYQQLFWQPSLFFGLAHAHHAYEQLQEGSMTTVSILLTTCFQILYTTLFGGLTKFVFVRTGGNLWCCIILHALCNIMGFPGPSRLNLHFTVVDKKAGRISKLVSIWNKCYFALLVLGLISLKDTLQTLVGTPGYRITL

[13] = molecular target: Glucose-6-phosphate 1-dehydrogenase (Homo sapiens, UniProt P11413); assay: inhibition of Homo sapiens G6PD, dose series – biochemical, fluorescence, selectivity assay for P. falciparum G6PD inhibitor project, dose response (AID 504792); assay type: functional
cells = assay type: functional
[14] = molecular target: T6, Histone-lysine N-methyltransferase NSD2 (Homo sapiens, UniProt O96028); assay type: biochemical
T6 sequence (O96028 whole entry): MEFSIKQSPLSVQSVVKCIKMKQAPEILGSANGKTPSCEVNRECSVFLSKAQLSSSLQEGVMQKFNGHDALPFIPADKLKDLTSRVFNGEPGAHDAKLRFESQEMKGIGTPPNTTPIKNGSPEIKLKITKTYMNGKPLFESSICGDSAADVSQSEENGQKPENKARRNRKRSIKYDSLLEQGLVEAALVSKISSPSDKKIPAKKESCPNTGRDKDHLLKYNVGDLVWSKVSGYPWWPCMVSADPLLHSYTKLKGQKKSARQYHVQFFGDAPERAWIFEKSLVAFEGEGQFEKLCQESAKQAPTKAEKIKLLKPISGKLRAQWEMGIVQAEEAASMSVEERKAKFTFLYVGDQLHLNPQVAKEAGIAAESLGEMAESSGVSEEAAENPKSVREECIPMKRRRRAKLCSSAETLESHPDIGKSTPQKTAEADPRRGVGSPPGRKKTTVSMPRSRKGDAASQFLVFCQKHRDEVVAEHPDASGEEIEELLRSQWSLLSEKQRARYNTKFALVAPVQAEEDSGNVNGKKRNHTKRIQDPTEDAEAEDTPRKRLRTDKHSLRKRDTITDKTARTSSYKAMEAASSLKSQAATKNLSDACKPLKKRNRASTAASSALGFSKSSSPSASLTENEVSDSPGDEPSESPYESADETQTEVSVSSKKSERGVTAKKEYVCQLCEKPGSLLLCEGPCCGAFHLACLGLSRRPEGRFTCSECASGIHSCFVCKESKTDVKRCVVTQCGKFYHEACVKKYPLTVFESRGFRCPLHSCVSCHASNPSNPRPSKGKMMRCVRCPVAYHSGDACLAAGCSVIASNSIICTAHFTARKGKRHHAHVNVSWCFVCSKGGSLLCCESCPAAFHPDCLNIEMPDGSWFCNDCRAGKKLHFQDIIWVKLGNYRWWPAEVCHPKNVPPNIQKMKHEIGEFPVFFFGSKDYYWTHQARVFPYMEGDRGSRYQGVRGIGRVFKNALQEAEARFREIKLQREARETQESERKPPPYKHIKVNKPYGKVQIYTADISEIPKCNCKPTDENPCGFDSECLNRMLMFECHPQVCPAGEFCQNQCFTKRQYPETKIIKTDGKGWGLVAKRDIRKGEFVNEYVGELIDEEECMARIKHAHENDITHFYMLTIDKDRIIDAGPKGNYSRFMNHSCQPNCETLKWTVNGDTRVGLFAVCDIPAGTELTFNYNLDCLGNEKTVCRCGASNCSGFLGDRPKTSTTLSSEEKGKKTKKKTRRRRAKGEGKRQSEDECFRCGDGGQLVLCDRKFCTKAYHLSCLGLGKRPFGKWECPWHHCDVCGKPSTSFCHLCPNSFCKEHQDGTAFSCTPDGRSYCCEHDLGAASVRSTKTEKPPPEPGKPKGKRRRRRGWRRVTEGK

[15] = molecular target: T7, DNA repair protein RAD52 homolog (Homo sapiens, UniProt P43351); assay type: functional, biochemical
T7 sequence (P43351 whole entry): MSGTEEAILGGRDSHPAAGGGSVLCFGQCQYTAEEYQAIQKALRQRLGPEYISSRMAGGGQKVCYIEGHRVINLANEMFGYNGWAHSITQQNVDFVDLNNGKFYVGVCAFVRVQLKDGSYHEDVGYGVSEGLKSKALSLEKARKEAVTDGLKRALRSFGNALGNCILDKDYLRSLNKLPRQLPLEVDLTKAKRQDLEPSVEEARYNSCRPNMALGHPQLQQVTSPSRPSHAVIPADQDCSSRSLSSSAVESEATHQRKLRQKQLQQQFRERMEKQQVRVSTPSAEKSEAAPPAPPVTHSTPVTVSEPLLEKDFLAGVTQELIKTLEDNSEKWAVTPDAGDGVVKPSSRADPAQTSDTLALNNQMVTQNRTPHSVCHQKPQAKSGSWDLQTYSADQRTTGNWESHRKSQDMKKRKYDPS

Sequence of Glucose-6-phosphate 1-dehydrogenase (P11413 whole entry): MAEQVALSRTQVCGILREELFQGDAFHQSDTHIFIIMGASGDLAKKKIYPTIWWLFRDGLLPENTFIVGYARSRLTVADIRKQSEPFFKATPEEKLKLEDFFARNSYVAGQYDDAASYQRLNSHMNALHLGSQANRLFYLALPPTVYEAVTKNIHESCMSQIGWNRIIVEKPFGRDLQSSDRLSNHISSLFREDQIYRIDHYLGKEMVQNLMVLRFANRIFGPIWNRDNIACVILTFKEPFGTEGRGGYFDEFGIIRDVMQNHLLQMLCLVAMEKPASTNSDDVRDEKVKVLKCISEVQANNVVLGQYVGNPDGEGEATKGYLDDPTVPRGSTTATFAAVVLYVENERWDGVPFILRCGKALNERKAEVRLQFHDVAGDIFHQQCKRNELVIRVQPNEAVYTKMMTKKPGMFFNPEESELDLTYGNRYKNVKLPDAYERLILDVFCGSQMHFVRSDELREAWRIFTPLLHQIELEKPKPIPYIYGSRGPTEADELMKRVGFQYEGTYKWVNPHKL
Sequence of Melanin-concentrating hormone receptor 1 (Q99705 whole entry): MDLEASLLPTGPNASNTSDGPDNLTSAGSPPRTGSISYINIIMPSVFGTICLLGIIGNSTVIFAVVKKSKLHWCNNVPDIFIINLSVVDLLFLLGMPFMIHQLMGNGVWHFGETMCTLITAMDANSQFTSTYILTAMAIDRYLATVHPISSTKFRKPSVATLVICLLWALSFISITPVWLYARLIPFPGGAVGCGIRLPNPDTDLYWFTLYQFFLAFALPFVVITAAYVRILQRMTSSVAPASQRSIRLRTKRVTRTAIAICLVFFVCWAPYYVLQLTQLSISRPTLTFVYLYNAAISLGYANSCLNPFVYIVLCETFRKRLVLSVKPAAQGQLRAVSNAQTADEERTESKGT
Sequence of Protein Wnt-3a (P27467 whole entry): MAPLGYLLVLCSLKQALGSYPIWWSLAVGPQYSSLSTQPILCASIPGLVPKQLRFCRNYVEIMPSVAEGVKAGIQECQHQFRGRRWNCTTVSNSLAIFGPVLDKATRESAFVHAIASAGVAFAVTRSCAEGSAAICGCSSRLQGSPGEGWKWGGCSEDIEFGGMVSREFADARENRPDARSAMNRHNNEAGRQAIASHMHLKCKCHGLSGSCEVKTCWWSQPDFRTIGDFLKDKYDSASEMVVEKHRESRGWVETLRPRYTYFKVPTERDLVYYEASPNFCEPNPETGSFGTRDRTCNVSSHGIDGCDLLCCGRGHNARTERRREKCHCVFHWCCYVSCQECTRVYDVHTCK

O=C(Cn1cc(C(=O)c2ccco2)c2ccccc21)Nc1ccccc1F
IC50 [1]: 1.33 µM (active)
IC50 (Protein Wnt-3a): 4.08 µM (active)
AC50 [2]: 4.67 µM (active)
AC50 [3]: 2.6 µM (active)
IC50 [4]: 1.79 µM (active)

COc1ccc(Nc2nnc(SCC(=O)/C=C3/N(C)c4ccccc4C3(C)C)s2)cc1
IC50 [1]: 1.72 µM (active)
CC50 [5]: 7.33 µM (active)
IC50 (Leucine aminopeptidase): 21.1 µM (active)
IC50 (Protein skinhead-1): > 100 µM (inactive)
IC50 [4]: 1.64 µM (active)

COc1ccc(Oc2c(Cl)cnn(-c3nc4ccccc4c(=O)c4ccccc34)c2=O)cc1
IC50 [6]: 0.707 µM (active)

O=[S@]1Oc2ccccc2-c2ccccc21
IC50 [7]: 76 µM (active)
AC50 [8]: 2.2 µM (active)

CN1CCN(CCC=C2c3ccccc3Sc3ccc(S(=O)(=O)N(C)C)cc32)CC1
CC50 (Vero [9]): 19.7 µM (active)
IC50 (Vero [10]): > 25 µM (active)

COC(=O)c1nc(N)sc1-c1ccc(Cl)c(Cl)c1
AC50 (CAAX prenyl protease 2 [11]): 11.6 µM (active)
AC50 (CAAX prenyl protease 2 [12]): 21.3 µM (active)

Cc1nnc(N/N=C/c2ccc(-c3ccccc3F)o2)n1N
IC50 [13]: > 80 µM (inactive)
IC50 (cells): 22.3 µM (active)

COc1cc(CN2CCN(CCCc3ccccc3)C(CCO)C2)cc(OC)c1O (configuration not stated)
IC50 [13]: 58.7 µM (inactive)

Cc1ccc(/C=C2\SC(=S)N(CCC(=O)N3CCOCC3)C2=O)cc1
CC50 (Vero [9]): 14.5 µM (active)
IC50 (Vero [10]): > 25 µM (active)

O=C(NC1CCCCC1)c1ccc2ccccc2c1O
IC50 (Vero [10]): 11.3 µM (active)

CCN(CC)CCCN(Cc1cc2cc3c(cc2[nH]c1=O)OCO3)C(=S)NCCCN(C)C
AC50 [14]: 9.07 µM (active)
AC50 (CAAX prenyl protease 2 [11]): 10.5 µM (active)
AC50 (CAAX prenyl protease 2 [12]): 16.4 µM (active)
AC50 [15]: 5.22 µM (active)
